Measured values: patent US20260373175A1, “STABLE AST-3424 API PRODUCT, PREPARATION METHOD THEREFOR, AND STORAGE THEREOF” (ASCENTAWITS PHARMACEUTICALS, LTD., priority 2022, published 2026)
Converted amounts (≈) assume the structure as drawn. “Also recorded” adds a separate entry of the source.

Experiments:
Assay type in all cases: physicochemical
[1] = Solubility test of AST-3424 in different solvents at 25 °C
Procedure: A proper amount of AST-3424 (hereinafter referred to as active pharmaceutical ingredient or API) was taken and placed into a proper container, a solvent was gradually added thereto, the mixture was uniformly shaken, the process of the solution changing from turbidity (excessive oil drops of AST-3424 exist) to clarification (AST-3424 is completely dissolved) was observed, the volume of the solvent for clarifying the mixed solution of AST-3424 was recorded, and the solubility was calculated.
In addition, water was further used for the experiment.

[2] = Stability of AST-3424 solutions (about 90 mg/mL) in different solvents, high-temperature destruction 40 °C, 3 days
Procedure: The AST-3424 solutions (contents were about 90 mg/mL) dissolved in different solvents were subjected to high-temperature destruction (40 °C, 3 days). The purity was detected. The destructed solutions were compared with samples not subjected to the destruction (40 °C, 3 days). The stability of AST-3424 in different solvents was examined.
Purity was determined by using an HPLC method:
Mobile phase: • A: 10 mmol/L ammonium acetate solution obtained by dissolving ammonium acetate in a mixed solvent of 95% water and 5% acetonitrile by volume ratio; and • B: 8 mmol/L ammonium acetate solution obtained by dissolving ammonium acetate in a mixed solvent of 95% acetonitrile and 5% water by volume ratio; and
A gradient elution was performed.

[3] = Long-term stability study at −20±5 °C and 5±3 °C away from light (HDPE bottle, LDPE bag, aluminum foil bag); settings: pure API, current limited stability data
From the text: (§1) The samples used for the stability study were inner-packaged in an HDPE bottle with a screw cap and outer-packaged in an LDPE bag with a pull button placed in a heat-sealing aluminum foil bag.
(§2) The water content (mass percentage), content, purity (chemical purity) and enantiomeric excess (e.e %) values were detected at 0, 1, 2, 3, 6, 9, 12, 18, 24, 36 and 42 months, respectively. The samples of batches 024101, 034101 and 044101 were used in the experiments.

[4] = Accelerated stability experiment at 25±2 °C and 60±5% RH away from light; settings: 25 °C, after 2 months
From the text: as §1, §2

[5] = Observation of viscosity of AST-3424 (FIG. 3); settings: neat AST-3424, FIG. 3
From the text: Therefore, it is inconvenient to transfer and sub-package it, and solvents are needed to reduce the viscosity thereof.

[6] = Choice of solvent during distillation in the preparation of AST-3424
From the text: In the preparation of the AST-3424, in order to remove the solvent, water, etc., used in the preparation and separation processes by distillation as much as possible, the applicant mixes the oily AST-3424 product separated and purified with various common solvents (ethyl acetate, ethanol, methanol, etc.) and performs distillation under reduced pressure after the mixture is heated at a lower temperature. […] Therefore, ethanol is ultimately used through initial confirmation.

[7] = Stability of AST-3424 solutions (about 90 mg/mL) in different solvents, high-temperature destruction 40 °C, 3 days; settings: dissolved in propylene glycol, compared with other solvents
[8] = absolute ethanol, 40 °C, 3 days
[9] = propylene glycol, 40 °C, 3 days

C[C@H](OP(=O)(N1CC1)N1CC1)c1ccc([N+](=O)[O-])c(Oc2cccc(C(=O)N(C)C)c2)c1 [AST-3424, (S)-1-(3-(3-N,N-dimethylaminocarbonyl)phenoxy-4-nitrophenyl)-1-ethyl-N,N′bis(ethylene)phosphoramidate]
Phenomenon (solubility in words) ([1]; ethanol, table cell continues '(mutually soluble)'): good solubilities; also recorded: good solubility and stability; also recorded: Very soluble
Phenomenon (solubility in words) ([1]; ethyl acetate, table cell continues '(mutually soluble)'): Very soluble
solubility ([1]; organic solvent or mixture, ethanol): > 1000 mg/mL
solubility ([1]; organic solvent or mixture, ethyl acetate): > 1000 mg/mL
solubility ([1]; organic solvent or mixture, propylene glycol): > 100 mg/mL
Phenomenon (solubility in words) ([1]; propylene glycol, table cell continues 'soluble'): good solubilities; also recorded: good solubility and stability; also recorded: Freely
solubility ([1]; water): ~20 mg/mL (≈ 43.4 mM)
Phenomenon (solubility in words) ([1]; water, table cell continues 'soluble'): sparingly soluble; also recorded: poor solubility and stability
Chemical purity ([2]; 0 day (not subjected to destruction)): 99.3%
Stability in solvent ([2]; absolute ethanol): stable; also recorded: good solubility and stability
Chemical purity [2, 8]: 98.8%
Content of AST-3424 [2, 8]: 89.5 mg/mL
Stability in solvent ([2]; acetonitrile): stable
Chemical purity ([2]; acetonitrile, 40 °C, 3 days): 99.3%
Content of AST-3424 ([2]; acetonitrile, 40 °C, 3 days): 91.0 mg/mL
Stability in solvent ([2]; ethyl acetate): stable
Chemical purity ([2]; ethyl acetate, 40 °C, 3 days): 96.6%
Content of AST-3424 ([2]; ethyl acetate, 40 °C, 3 days): 96.1 mg/mL
Stability in solvent ([2]; propylene glycol): stable; also recorded: good solubility and stability
Chemical purity [2, 9]: 96.8%
Content of AST-3424 [2, 9]: 83.5 mg/mL
Stability in solvent ([2]; water): poor solubility and stability
Chemical purity ([2]; water, 40 °C, 3 days): 75.4%
Content of AST-3424 ([2]; water, 40 °C, 3 days): 89.2 mg/mL
Stability compared with AST-3424 ethanol solution [3]: better than that of the AST-3424 ethanol solution
Degradation [4]: degraded rapidly
Purity [4]: less than 98%
Physical state / viscosity [5]: viscous oily substance
solubility ([6]; ethanol): almost infinitely dissolve
solubility ([6]; ethyl acetate): not high enough
solubility ([6]; methanol): good solubility
Viscosity [7]: obviously higher viscosity; also recorded: high viscosity
